Activity calls are given as the source filed them. The calls are words filed in the database; no cut-off is given here.
What was measured:
PC-3 [1] = assay: Antiproliferative activity against human PC3 cells assessed as growth inhibition at 30 uM by MTS assay; assay type: functional; details: read-out: GI
MDA-MB-231 = assay: Antiproliferative activity against human MDA-MB-231 cells assessed as growth inhibition by MTS assay; assay type: functional, cell-based
DU-145 = assay: Antiproliferative activity against human DU145 cells assessed as growth inhibition by MTS assay; assay type: functional, cell-based
PC-3 [2] = assay: Antiproliferative activity against human PC3 cells assessed as growth inhibition by MTS assay; assay type: functional, cell-based
Tubulin (Sus scrofa) [3] = biological target: T1, Tubulin (Sus scrofa) (UniProt P02554+P02550); assay: Induction of purified porcine brain tubulin polymerization assessed as microtubule-stabilization at 50 uM by spectrophotometric analysis
T1 sequence (P02550 whole entry, looked up): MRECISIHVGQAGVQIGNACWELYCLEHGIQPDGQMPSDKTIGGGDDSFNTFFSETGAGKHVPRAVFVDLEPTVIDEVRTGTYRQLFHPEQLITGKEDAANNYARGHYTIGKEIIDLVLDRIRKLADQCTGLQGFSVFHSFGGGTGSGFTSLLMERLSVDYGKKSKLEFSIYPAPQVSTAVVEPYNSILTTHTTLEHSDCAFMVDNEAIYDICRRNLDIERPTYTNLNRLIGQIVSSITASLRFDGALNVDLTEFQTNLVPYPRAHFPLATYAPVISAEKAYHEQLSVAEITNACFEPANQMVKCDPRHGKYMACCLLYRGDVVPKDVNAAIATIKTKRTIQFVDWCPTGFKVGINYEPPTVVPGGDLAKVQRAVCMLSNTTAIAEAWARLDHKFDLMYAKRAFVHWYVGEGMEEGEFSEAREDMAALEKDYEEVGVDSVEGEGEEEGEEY
T1 sequence (P02554 whole entry, looked up): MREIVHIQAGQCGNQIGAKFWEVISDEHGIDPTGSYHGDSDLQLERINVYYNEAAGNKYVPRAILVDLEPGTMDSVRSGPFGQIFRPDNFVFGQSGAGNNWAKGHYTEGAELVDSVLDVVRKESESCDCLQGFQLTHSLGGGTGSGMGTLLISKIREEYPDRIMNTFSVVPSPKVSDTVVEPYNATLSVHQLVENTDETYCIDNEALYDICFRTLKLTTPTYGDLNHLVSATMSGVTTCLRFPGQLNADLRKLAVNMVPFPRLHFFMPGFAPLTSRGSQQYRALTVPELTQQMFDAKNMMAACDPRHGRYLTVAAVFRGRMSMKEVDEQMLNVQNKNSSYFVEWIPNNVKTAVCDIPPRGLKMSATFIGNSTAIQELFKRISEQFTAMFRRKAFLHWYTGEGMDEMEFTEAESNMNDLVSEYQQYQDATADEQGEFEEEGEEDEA

Tubulin (Sus scrofa) [4] = biological target: T1, Tubulin (Sus scrofa); assay: Induction of purified porcine brain tubulin polymerization at 50 uM by spectrophotometric analysis

| Structure (SMILES) | inhibition of growth at 30 µM (PC-3 [1]) [%] | IC50 (MDA-MB-231) [µM] | IC50 (DU-145) [µM] | IC50 (PC-3 [2]) [µM] | Activity (Tubulin (Sus scrofa) [3]) | Activity (Tubulin (Sus scrofa) [4]) |
| --- | --- | --- | --- | --- | --- | --- |
| O=C1c2ccccc2C(=O)N1c1cc(Cl)ccc1Cl | < 10 | – | – | – | – | – |
| Cc1cccc(C)c1N1C(=O)c2ccccc2C1=O | < 10 | – | – | – | – | – |
| O=C1c2ccccc2C(=O)N1c1ccc(Cl)c(Cl)c1 | < 10 | – | – | – | – | – |
| CC(C)c1cccc(C(C)C)c1N1C(=O)c2ccc(C(=O)O)cc2C1=O | – | 5.56 | 9.16 | 6.4 | – | – |
| O=C1c2ccccc2C(=O)N1c1cc(Cl)cc(Cl)c1 | < 10 | – | – | – | – | – |
| O=C1c2ccccc2C(=O)N1c1c(Cl)cccc1Cl | < 10 | – | – | – | – | – |
| CC(C)c1cccc(C(C)C)c1N1C(=O)c2ccc([N+](=O)[O-])cc2C1=O | – | > 50 | 15 | – | – | – |
| CC(C)c1cccc(C(C)C)c1N1C(=O)c2ccc(Cl)cc2C1=O | – | 10.6 | 14.1 | 5.52 | – | – |
| Cc1ccc2c(c1)C(=O)N(c1c(C(C)C)cccc1C(C)C)C2=O | – | 4.85 | 6.62 | 8.02 | – | – |
| Cc1ccc(N2C(=O)c3ccccc3C2=O)cc1C | < 10 | – | – | – | – | – |
| O=C1c2ccccc2C(=O)N1c1c(F)cccc1F | < 10 | – | – | – | – | – |
| O=C1c2ccccc2C(=O)N1c1cccc2ccccc12 | < 10 | – | – | – | – | – |
| O=C1c2ccccc2C(=O)N1c1ccc(Cl)cc1Cl | < 10 | – | – | – | – | – |
| CC(C)c1cccc(C(C)C)c1N1C(=O)c2ccc(O)cc2C1=O | > 90 | 5.35 | 5.74 | 8.3 | Active | Active |
| O=C1c2ccccc2C(=O)N1c1ccc([N+](=O)[O-])c(C(F)(F)F)c1 | < 10 | – | – | – | – | – |
| CC(C)c1cccc(C(C)C)c1N1C(=O)c2ccccc2C1=O | – | 4.12 | 7.12 | 4.01 | – | – |
| COc1ccc(N2C(=O)c3ccccc3C2=O)cc1OC | 10.2 | – | – | – | – | – |
| O=C1c2ccccc2C(=O)N1c1c(Br)cccc1Br | 21.9 | – | – | – | – | – |
| CC(C)c1cccc(C(C)C)c1N1C(=O)c2cccc(O)c2C1=O | – | 15 | 45.6 | 45.2 | – | Active |
| CC(C)c1cccc(C(C)C)c1N1C(=O)c2ccc(N)cc2C1=O | – | 7.24 | 3.94 | 2.07 | – | Active |
| CC(C)c1cccc(C(C)C)c1N1C(=O)c2cccc(N)c2C1=O | – | 7.24 | 8.14 | 6.26 | – | – |
| CCc1cccc(CC)c1N1C(=O)c2ccc(O)cc2C1=O | – | 29.2 | 45.9 | > 50 | Active | – |
| O=C1c2ccccc2C(=O)N1c1ccc2ccccc2c1 | 16 | – | – | – | – | – |
| CC(C)c1cccc(C(C)C)c1N1C(=O)c2cccc([N+](=O)[O-])c2C1=O | – | 37.7 | > 50 | 38.3 | – | – |
| Cc1cccc(C)c1N1C(=O)c2ccc(O)cc2C1=O | – | > 50 | > 50 | > 50 | inactive | – |
| COC(=O)c1ccc2c(c1)C(=O)N(c1c(C(C)C)cccc1C(C)C)C2=O | – | 6.87 | 24.6 | 21.8 | – | – |

Reference: ChEMBL document CHEMBL3091346, “Structure-activity relationship studies of thalidomide analogs with a taxol-like mode of action” (Bioorg Med Chem Lett, 2013)
